Numbers after ± are expanded uncertainties.
Assay: wn = mass fraction of the nth substance listed
Conditions: 323.15 K, 101.3 kPa, Liquid, Vibrating tube method

Structure (SMILES): O=[PH2][O-].O=[PH2][O-].[Ca+2] [calcium hypophosphite] + O
- mass density (w1 = 0.1326): 1073.2 ± 24 kg/m3

Structure (SMILES): [Ca+2].[Cl-].[Cl-] [calcium chloride] + O
- mass density (w1 = 0.566): 1575.9 ± 24 kg/m3

Structure (SMILES): O=[PH2][O-].[Na+] [sodium phosphinate] + O
- mass density (w1 = 0.5786): 1415.2 ± 24 kg/m3
